Laboratory results taken from patent US9751878B2, “Tetrahydronaphthyridine somatostatin receptor 5 antagonists” (Takeda Pharmaceutical Company Limited, priority 2013, dated 2017).

Columns and labels:
human SSTR5 = biological target: T1, human SSTR5 (Homo sapiens, UniProt P35346); experiment: Evaluation of human SSTR5 antagonist activity using intracellular cAMP concentration as index; type: cell-based; details: 1 μM test compound; CHO (dhfr-) cells stably expressing human SSTR5; 0.1 nM somatostatin 28, 0.3 μM forskolin; cAMP HTRF; read-out: Inhibition rate against SSTR5 at 1 μM
T1 construct: expressed in transfected cells
T1 sequence (P35346 whole entry): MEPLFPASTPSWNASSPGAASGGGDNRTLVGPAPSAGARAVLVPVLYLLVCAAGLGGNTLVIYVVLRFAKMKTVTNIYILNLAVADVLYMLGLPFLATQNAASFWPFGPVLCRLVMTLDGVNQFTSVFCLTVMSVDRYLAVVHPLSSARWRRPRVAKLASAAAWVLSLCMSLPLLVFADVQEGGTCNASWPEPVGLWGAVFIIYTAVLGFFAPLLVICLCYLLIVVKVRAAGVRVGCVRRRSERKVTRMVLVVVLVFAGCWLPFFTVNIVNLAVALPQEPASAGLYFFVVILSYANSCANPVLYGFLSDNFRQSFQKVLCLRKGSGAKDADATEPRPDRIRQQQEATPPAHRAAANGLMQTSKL
Method: Evaluation of Human SSTR5 Antagonist Activity Using Intracellular cAMP Concentration as Index
The intracellular cAMP concentration was measured using HTRF cAMP dynamic 2 kit (Cisbio Bioassays). Each test compound diluted with an assay buffer (HBSS (Invitrogen Corp.) containing 5 mM HEPES (pH 7.5) (Invitrogen Corp.), 0.1% fatty-acid free BSA (Sigma-Aldrich Corp.), and 500 μM IBMX (Wako Pure Chemical Industries, Ltd.)) was added at a concentration of 2 μL/well to a 384-well white plate (Greiner Bio-One Co., Ltd.) to give the final concentration of 1 μM. A frozen stock of CHO (dhfr-) cells stably expressing the human SSTR5 gene (Accession No. NM_001053) was thawed in a thermostat bath of 37° C. and suspended in a subculture medium (MEM alpha (Wako Pure Chemical Industries, Ltd.), 10% dialyzed serum (Gemini Bio-Products), and 50 μg/mL gentamicin (Invitrogen Corp.). After centrifugation of the cell suspension, the cells were resuspended in an assay buffer and added at a concentration of 2 μL/well (about 4,000 cells/well) to the plate. The compound and the cells were incubated for 15 minutes, and then, an assay buffer containing 0.1 nM (final concentration) somatostatin 28 (Toray Research Center) and 0.3 μM (final concentration) forskolin (Wako Pure Chemical Industries, Ltd.) was added thereto at a concentration of 2 μL/well, followed by incubation at room temperature for 30 minutes. cAMP-d2 and anti-cAMP-cryptate were each added thereto at a concentration of 3 μL/well. The plate was left standing at room temperature for 60 minutes. Then, the fluorescence resonance energy transfer (FRET) intensity was measured using Multi-label reader Envision (PerkinElmer). The FRET intensity of the wells supplemented with the test compound group was converted to a cAMP concentration using a calibration curve prepared from the FRET intensity of a well group containing an assay buffer supplemented with an arbitrary concentration of cAMP. The inhibitory activity of each compound was calculated according to the following expression: Inhibitory activity (%)=(C−B)/(A−B)×100 A: cAMP concentration calculated from the wells supplemented with 0.3 μM forskolin B: cAMP concentration calculated from the wells supplemented with 0.3 μM forskolin and 0.1 nM somatostatin 28 C: cAMP concentration calculated from the wells supplemented with 0.3 μM forskolin, 0.1 nM somatostatin 28, and 1 μM test compound

[1] = tested on: high fat diet-fed male C57BL6J mice; experiment: Glucose tolerance test in mice (oral glucose tolerance test); type: in vivo; details: 1 mg/kg oral, n=6
Method: Glucose Tolerance Test in Mice
Oral glucose tolerance test was performed in high fat diet-fed male C57BL6J mice (Clea Japan Inc.). 8 weeks old mice were fasted overnight and divided into separate groups (n=6) based on plasma glucose levels and body weight. Vehicle (0.5% (w/v) methylcellulose) or the compound of Example 72 (1 mg/kg) (suspended in vehicle) were orally given to animals and glucose was loaded (5 g/kg) 1 h after drug administration. Blood was collected from tail vein and blood glucose levels (mg/dL) were measured by ACCU-CHEK (Roche Inc.) at time 0 (just before glucose load), 10, 30, 60 and 120 min after glucose load.

Compound	inhibition at 1 µM (human SSTR5)	also measured
CCCc1nc2c(cc1C(=O)O)C(=O)N(C1CCN(Cc3cc(C4CC4)c(-c4ccc(F)c(F)c4)cc3OC(C)C)CC1)CC2 [Example 39, 6-(1-((2-Cyclopropyl-3′,4′-difluoro-5-isopropoxybiphenyl-4-yl)methyl)piperidin-4-yl)-5-oxo-2-propyl-5,6,7,8-tetrahydro-1,6-naphthyridine-3-carboxylic acid]	112%	
CCOc1cc(CN2CCC(N3CCc4nc(CC)c(C(=O)O)cc4C3=O)CC2)cc(C2CC2)c1-c1ccc(F)cc1 [Example 45, 6-(1-((2-Cyclopropyl-6-ethoxy-4′-fluorobiphenyl-4-yl)methyl)piperidin-4-yl)-2-ethyl-5-oxo-5,6,7,8-tetrahydro-1,6-naphthyridine-3-carboxylic acid]	99%	
CCc1nc2c(cc1C(=O)O)C(=O)N(C1CCN(Cc3cc(C4CC4)c(-c4ccc(F)cc4F)cc3OC(C)C)CC1)CC2 [Example 46, 6-(1-((2-Cyclopropyl-2′,4′-difluoro-5-isopropoxybiphenyl-4-yl)methyl)piperidin-4-yl)-2-ethyl-5-oxo-5,6,7,8-tetrahydro-1,6-naphthyridine-3-carboxylic acid]	86%	
CCc1nc2c(cc1C(=O)O)C(=O)N(C1CCN(Cc3cc(C4CC4)c(-c4ccc(F)cc4)c(F)c3OC(C)C)CC1)CC2 [Example 72, 6-(1-((6-Cyclopropyl-2,4′-difluoro-3-isopropoxybiphenyl-4-yl)methyl)piperidin-4-yl)-2-ethyl-5-oxo-5,6,7,8-tetrahydro-1,6-naphthyridine-3-carboxylic acid]	97%	blood glucose levels, 10 min ([1]; 10 min after glucose load (5 g/kg)): 283 mg/dL; blood glucose levels, 30 min ([1]; 30 min after glucose load (5 g/kg)): 269 mg/dL; blood glucose levels, 60 min ([1]; 60 min after glucose load (5 g/kg)): 267 mg/dL; blood glucose levels, 120 min ([1]; 120 min after glucose load (5 g/kg)): 140 mg/dL; blood glucose levels, 0 min ([1]; time 0 (just before glucose load, 1 h after drug administration)): 123 mg/dL; AUCpre-120 min ([1]; blood glucose AUC, glucose load 5 g/kg): 463 mg·h/dL
CCCc1nc2c(cc1C(=O)O)C(=O)N(C1CCN(Cc3cc(C4CC4)c(-c4ccc(F)cc4)cc3OC(C)C)CC1)CC2 [Example 37, 6-(1-((2-Cyclopropyl-4′-fluoro-5-isopropoxybiphenyl-4-yl)methyl)piperidin-4-yl)-5-oxo-2-propyl-5,6,7,8-tetrahydro-1,6-naphthyridine-3-carboxylic acid]	97%	
CCCc1nc2c(cc1C(=O)O)C(=O)N(C1CCN(Cc3cc(C4CC4)c(-c4ccc(F)cc4F)c(F)c3OC)CC1)CC2 [Example 65, 6-(1-((6-Cyclopropyl-2,2′,4′-trifluoro-3-methoxybiphenyl-4-yl)methyl)piperidin-4-yl)-5-oxo-2-propyl-5,6,7,8-tetrahydro-1,6-naphthyridine-3-carboxylic acid]	86%	
CCCc1nc2c(cc1C(=O)O)C(=O)N(C1CCN(Cc3cc(OCC)c(-c4ccc(F)cc4)c(C4CC4)c3)CC1)CC2 [Example 36, 6-(1-((2-Cyclopropyl-6-ethoxy-4′-fluorobiphenyl-4-yl)methyl)piperidin-4-yl)-5-oxo-2-propyl-5,6,7,8-tetrahydro-1,6-naphthyridine-3-carboxylic acid]	94%	
CCCc1nc2c(cc1C(=O)O)C(=O)N(C1CCN(Cc3cc(C4CC4)c(-c4ccc(F)c(F)c4)cc3OCC)CC1)CC2 [Example 43, 6-(1-((2-Cyclopropyl-5-ethoxy-3′,4′-difluorobiphenyl-4-yl)methyl)piperidin-4-yl)-5-oxo-2-propyl-5,6,7,8-tetrahydro-1,6-naphthyridine-3-carboxylic acid]	95%	
CCCc1nc2c(cc1C(=O)O)C(=O)N(C1CCN(Cc3cc(C4CC4)c(-c4ccc(F)cc4)c(F)c3OC)CC1)CC2 [Example 81, 6-(1-((6-Cyclopropyl-2,4′-difluoro-3-methoxybiphenyl-4-yl)methyl)piperidin-4-yl)-5-oxo-2-propyl-5,6,7,8-tetrahydro-1,6-naphthyridine-3-carboxylic acid]	82%	
CCCc1nc2c(cc1C(=O)O)C(=O)N(C1CCN(Cc3cc(C4CC4)c(-c4ccc(F)cc4F)cc3OC(C)C)CC1)CC2 [Example 40, 6-(1-((2-Cyclopropyl-2′,4′-difluoro-5-isopropoxybiphenyl-4-yl)methyl)piperidin-4-yl)-5-oxo-2-propyl-5,6,7,8-tetrahydro-1,6-naphthyridine-3-carboxylic acid]	148%	
CC(C)Oc1cc(-c2ccc(F)cc2)c(C2CC2)cc1CN1CCC(N2CCc3nc(C(C)C)c(C(=O)O)cc3C2=O)CC1 [Example 50, 6-(1-((2-Cyclopropyl-4′-fluoro-5-isopropoxybiphenyl-4-yl)methyl)piperidin-4-yl)-2-isopropyl-5-oxo-5,6,7,8-tetrahydro-1,6-naphthyridine-3-carboxylic acid]	99%	
CCCc1nc2c(cc1C(=O)O)C(=O)N(C1CCN(Cc3cc(C4CC4)c(-c4ccc(F)cc4)cc3OC)CC1)CC2 [Example 42, 6-(1-((2-Cyclopropyl-4′-fluoro-5-methoxybiphenyl-4-yl)methyl)piperidin-4-yl)-5-oxo-2-propyl-5,6,7,8-tetrahydro-1,6-naphthyridine-3-carboxylic acid]	136%	
CCc1nc2c(cc1C(=O)O)C(=O)N(C1CCN(Cc3cc(C4CC4)c(-c4ccc(F)cc4F)c(Cl)c3OC)CC1)CC2 [Example 66, 6-(1-((2-Chloro-6-cyclopropyl-2′,4′-difluoro-3-methoxybiphenyl-4-yl)methyl)piperidin-4-yl)-2-ethyl-5-oxo-5,6,7,8-tetrahydro-1,6-naphthyridine-3-carboxylic acid]	64%	
CCCc1nc2c(cc1C(=O)O)C(=O)N(C1CCN(Cc3cc(OC(C)C)c(-c4ccc(F)cc4)c(C4CC4)c3)CC1)CC2 [Example 63, 6-(1-((2-Cyclopropyl-4′-fluoro-6-isopropoxybiphenyl-4-yl)methyl)piperidin-4-yl)-5-oxo-2-propyl-5,6,7,8-tetrahydro-1,6-naphthyridine-3-carboxylic acid]	97%	
Cc1nc2c(cc1C(=O)O)C(=O)N(C1CCN(Cc3cc(C4CC4)c(-c4ccc(F)cc4)cc3OC(C)C)CC1)CC2 [Example 7, 6-(1-((2-Cyclopropyl-4′-fluoro-5-isopropoxybiphenyl-4-yl)methyl)piperidin-4-yl)-2-methyl-5-oxo-5,6,7,8-tetrahydro-1,6-naphthyridine-3-carboxylic acid]	88%	
Cc1nc2c(cc1C(=O)O)C(=O)N(C1CCN(Cc3cc(C4CC4)c(-c4ccc(F)cc4)nc3OC(C)C)CC1)CC2 [Example 6, 6-(1-((5-Cyclopropyl-6-(4-fluorophenyl)-2-isopropoxypyridin-3-yl)methyl)piperidin-4-yl)-2-methyl-5-oxo-5,6,7,8-tetrahydro-1,6-naphthyridine-3-carboxylic acid]	88%	
